Test [1] concerns human SKM-1 acute myeloid leukemia cells. The experiment in a line: SKM-1 antiproliferation cell-based assay (ATPlite). To be noted: Homo sapiens, SKM-1, 96 h, SKM-1 antiproliferation assay, 4 days, Table C2. A digest of the protocol: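 Log-phase cells in RPMI 1640/15% FBS were seeded at 34722 cells/mL and exposed for 4 days to nine-concentration DMSO serial dilutions in triplicate. Viability was read as ATP luminescence (ATPlite 1step), and IC50 values came from variable-slope non-linear regression.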
A general note: ATP-based viability assays read luminescence as a measure of living cells.

In test [2] the target is T1, human BRD4 bromodomain II (Homo sapiens, UniProt O60885).
T1 construct: human BRD4 bromodomain II [based on Genbank NM_058243, residues 349-460]; host or cells: E. coli
The experiment in a line: Bromodomain binding assay (AlphaScreen), BRD4 BDII. The note with it: AlphaScreen assay, Table C2; read-out: BRD4 BDII IC50. The method, boiled down:
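E. coli-expressed N-terminal His6-tagged human BRD4 BDII (residues 349-460) or BDI (residues 44-170) was preincubated 30 min at room temperature with compound (10-point, 3-fold) in pH 7.5 HEPES buffer, 1% DMSO. Displacement of biotinylated tetra-acetylated H4 1-21 peptide was read by AlphaScreen, and IC50 came from curve fitting.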
On the technique in general: Bead proximity is the source of the signal in Alpha formats.

Where only a bound is given, the exact number is not on record here.

`CC(C)N1CCN(c2cc(-c3cc(F)cc(-c4ccc(-n5ccn(C)c5=O)c(Cl)c4)c3O)cnc2Cl)CC1` [Example 787, 1-(3-chloro-3′-(6-chloro-5-(4-isopropylpiperazin-1-yl)pyridin-3-yl)-5′-fluoro-2′-hydroxy-[1,1′-biphenyl]-4-yl)-3-methyl-1H-imidazol-2(3H)-one] came in with a GI50 in test [1] of 0.3 to 30 nM. The IC50 in test [2] lay within 0.01 to 1 nM.
In turn, `CN(C)C1(c2cccc(-c3cc(F)cc(-c4ccc(-n5ccn(C)c5=O)c(Cl)c4)c3O)c2)CC1` [Example 788, 1-(3-chloro-3″-(1-(dimethylamino)cyclopropyl)-5′-fluoro-2′-hydroxy-[1,1′:3′,1″-terphenyl]-4-yl)-3-methyl-1H-imidazol-2(3H)-one] returned a 50% growth inhibitory concentration (GI50) in test [1] of 300 to 3000 nM. In addition, in test [2], the IC50 is 10 to 100 nM.
The like results for `Cn1ccn(-c2ccc(-c3cc(F)cc(-c4cnc(Cl)c(N5CCN(C(C)(C)C)CC5)c4)c3O)cc2Cl)c1=O` [Example 789, 1-(3′-(5-(4-(tert-butyl)piperazin-1-yl)-6-chloropyridin-3-yl)-3-chloro-5′-fluoro-2′-hydroxy-[1,1′-biphenyl]-4-yl)-3-methyl-1H-imidazol-2(3H)-one] were, in that order, 0.3 to 30 nM and 1 to 10 nM.
The like results for `CC(=O)NC1(C)CCN(c2cc(-c3cc(F)cc(-c4ccc(-n5ccn(C)c5=O)c(Cl)c4)c3O)ccn2)CC1` [Example 790, N-(1-(4-(3′-chloro-5-fluoro-2-hydroxy-4′-(3-methyl-2-oxo-2,3-dihydro-1H-imidazol-1-yl)-[1,1′-biphenyl]-3-yl)pyridin-2-yl)-4-methylpiperidin-4-yl)acetamide] were, in that order, 0.3 to 30 nM and 0.01 to 1 nM.
The matching figures for `Cc1ncc(-c2cc(F)cc(-c3ccc(-n4ccn(C)c4=O)c(Cl)c3)c2O)cc1N1CCN(C(C)(C)C)CC1` [Example 791, 1-(3′-(5-(4-(tert-butyl)piperazin-1-yl)-6-methylpyridin-3-yl)-3-chloro-5′-fluoro-2′-hydroxy-[1,1′-biphenyl]-4-yl)-3-methyl-1,3-dihydro-2H-imidazol-2-one]: 0.3 to 30 nM and 0.01 to 1 nM.
As for `Cn1ccn(-c2ccc(-c3cc(F)cc(-c4ccnc(N5CCC(C)(NS(C)(=O)=O)C5)c4)c3O)cc2Cl)c1=O` (stereo not shown) [Example 792, N-(1-(4-(3′-chloro-5-fluoro-2-hydroxy-4′-(3-methyl-2-oxo-2,3-dihydro-1H-imidazol-1-yl)-[1,1′-biphenyl]-3-yl)pyridin-2-yl)-3-methylpyrrolidin-3-yl)methanesulfonamide], in test [1], the GI50 was 300 to 3000 nM. The IC50 in test [2] is over 100 nM.
The matching figures for `CC(=O)N[C@]1(C)CCN(c2cncc(-c3cc(F)cc(-c4ccc(-n5ccn(C)c5=O)c(Cl)c4)c3O)c2)C1` [Example 793, (R)-N-(1-(5-(3′-chloro-5-fluoro-2-hydroxy-4′-(3-methyl-2-oxo-2,3-dihydro-1H-imidazol-1-yl)-[1,1′-biphenyl]-3-yl)pyridin-3-yl)-3-methylpyrrolidin-3-yl)acetamide]: 0.3 to 30 nM and 0.01 to 1 nM.
As for `CC(=O)N(C)C1(c2cccc(-c3cc(F)cc(-c4ccc(-n5ccn(C)c5=O)c(Cl)c4)c3O)c2)CC1` [Example 794, N-(1-(3″-chloro-5′-fluoro-2′-hydroxy-4″-(3-methyl-2-oxo-2,3-dihydro-1H-imidazol-1-yl)-[1,1′:3′,1″-terphenyl]-3-yl)cyclopropyl)-N-methylacetamide], the GI50 in test [1] was 300 to 3000 nM. For the same compound, the IC50 in test [2] fell in the range of 10 to 100 nM.
The like results for `CC(=O)NC(C)(C)C#Cc1cccc(-c2cc(F)cc(-c3ccc(-n4ccn(C)c4=O)c(Cl)c3)c2O)c1` [Example 795, N-(4-(3″-chloro-5′-fluoro-2′-hydroxy-4″-(3-methyl-2-oxo-2,3-dihydro-1H-imidazol-1-yl)-[1,1′:3′,1″-terphenyl]-3-yl)-2-methylbut-3-yn-2-yl)acetamide] were, in that order, 300 to 3000 nM and over 100 nM.
The like results for `Cn1ccn(-c2ccc(-c3cc(F)cc(-c4ccc5ncc(C(C)(C)O)cc5c4)c3O)cc2Cl)c1=O` [Example 796, 1-(3-chloro-5′-fluoro-2′-hydroxy-3′-(3-(2-hydroxypropan-2-yl)quinolin-6-yl)-[1,1′-biphenyl]-4-yl)-3-methyl-1H-imidazol-2(3H)-one] were, in that order, 30 to 300 nM and 1 to 10 nM.
The matching figures for `CC(C)N1CCN(c2cc(-c3cc(F)cc(-c4ccc(-n5ccn(C)c5=O)c(Cl)c4)c3O)cnn2)CC1` [Example 797, 1-(3-chloro-5′-fluoro-2′-hydroxy-3′-(6-(4-isopropylpiperazin-1-yl)pyridazin-4-yl)-[1,1′-biphenyl]-4-yl)-3-methyl-1H-imidazol-2(3H)-one]: 0.3 to 30 nM and 0.01 to 1 nM.
`Cn1ccn(-c2ccc(-c3cc(F)cc(-c4cnnc(N5CCN(C(C)(C)C)CC5)c4)c3O)cc2Cl)c1=O` [Example 798, 1-(3′-(6-(4-(tert-butyl)piperazin-1-yl)pyridazin-4-yl)-3-chloro-5′-fluoro-2′-hydroxy-[1,1′-biphenyl]-4-yl)-3-methyl-1H-imidazol-2(3H)-one]: the GI50 in test [1] was in the range of 0.3 to 30 nM. Besides, the IC50 in test [2] was 0.01 to 1 nM.
The like results for `CNC1(c2cccc(-c3cc(F)cc(-c4ccc(-n5ccn(C)c5=O)c(Cl)c4)c3O)c2)CC1` [Example 799, 1-(3-chloro-5′-fluoro-2′-hydroxy-3″-(1-(methylamino)cyclopropyl)-[1,1′:3′,1″-terphenyl]-4-yl)-3-methyl-1H-imidazol-2(3H)-one] were, in that order, 30 to 300 nM and 0.01 to 1 nM.
The compound `Cc1ccc(-c2cc(F)cc(-c3ccc(-n4ccn(C)c4=O)c(Cl)c3)c2O)cc1N1CCN(C(C)(C)C)CC1` [Example 800, 1-(3″-(4-(tert-butyl)piperazin-1-yl)-3-chloro-5′-fluoro-2′-hydroxy-4″-methyl-[1,1′:3′,1″-terphenyl]-4-yl)-3-methyl-1H-imidazol-2(3H)-one] came in with a GI50 in test [1] of 0.3 to 30 nM. Further, the 50% inhibitory concentration (IC50) in test [2] was in the range of 0.01 to 1 nM.
The like results for `Cn1ccn(-c2ccc(-c3cc(F)cc(-c4ccc5ccc(C(C)(C)O)cc5c4)c3O)cc2Cl)c1=O` [Example 801, 1-(3-chloro-5′-fluoro-2′-hydroxy-3′-(7-(2-hydroxypropan-2-yl)naphthalen-2-yl)-[1,1′-biphenyl]-4-yl)-3-methyl-1H-imidazol-2(3H)-one] were, in that order, 30 to 300 nM and 1 to 10 nM.
The like results for `COc1ncc(-c2cc(F)cc(-c3ccc(-n4ccn(C)c4=O)c(Cl)c3)c2O)cc1N1CCN(C(C)(C)C)CC1` [Example 802, 1-(3′-(5-(4-(tert-butyl)piperazin-1-yl)-6-methoxypyridin-3-yl)-3-chloro-5′-fluoro-2′-hydroxy-[1,1′-biphenyl]-4-yl)-3-methyl-1,3-dihydro-2H-imidazol-2-one] were, in that order, 0.3 to 30 nM and 0.01 to 1 nM.
The matching figures for `Cn1ccn(-c2ccc(-c3cc(F)cc(-c4cccc(C5(N)CC5)c4)c3O)cc2Cl)c1=O` [Example 803, 1-(3″-(1-aminocyclopropyl)-3-chloro-5′-fluoro-2′-hydroxy-[1,1′:3′,1″-terphenyl]-4-yl)-3-methyl-1H-imidazol-2(3H)-one]: 30 to 300 nM and 1 to 10 nM.
The compound `CC(C)N1CCN(c2cc(-c3cc(F)cc(-c4ccc(-n5ccn(C)c5=O)c(Cl)c4)c3O)cnc2C(F)(F)F)CC1` [Example 804, 1-(3-chloro-5′-fluoro-2′-hydroxy-3′-(5-(4-isopropylpiperazin-1-yl)-6-(trifluoromethyl)pyridin-3-yl)-[1,1′-biphenyl]-4-yl)-3-methyl-1H-imidazol-2(3H)-one] came in with a GI50 in test [1] of 0.3 to 30 nM. For the same compound, in test [2], the IC50 was in the range of 1 to 10 nM.
The like results for `Cn1ccn(-c2ccc(-c3cc(F)cc(-c4cnc(C(F)(F)F)c(N5CCN(C(C)(C)C)CC5)c4)c3O)cc2Cl)c1=O` [Example 805, 1-(3′-(5-(4-(tert-butyl)piperazin-1-yl)-6-(trifluoromethyl)pyridin-3-yl)-3-chloro-5′-fluoro-2′-hydroxy-[1,1′-biphenyl]-4-yl)-3-methyl-1H-imidazol-2(3H)-one] were, in that order, 30 to 300 nM and 1 to 10 nM.
`Cn1ccn(-c2ccc(-c3cc(F)cc(-c4ccnc(N5CC6CCC6(N)C5)c4)c3O)cc2Cl)c1=O` (stereo not shown) [Example 806, 1-(3′-(2-(1-amino-3-azabicyclo[3.2.0]heptan-3-yl)pyridin-4-yl)-3-chloro-5′-fluoro-2′-hydroxy-[1,1′-biphenyl]-4-yl)-3-methyl-1H-imidazol-2(3H)-one] registered a GI50 in test [1] of 0.3 to 30 nM. The IC50 in test [2] lay in the range of 1 to 10 nM.
The matching figures for `Cn1ccn(-c2ccc(-c3cc(F)cc(-c4cccc(N5CC[C@@](C)(O)C5)c4)c3O)cc2Cl)c1=O` [Example 807, (R)-1-(3-chloro-5′-fluoro-2′-hydroxy-3″-(3-hydroxy-3-methylpyrrolidin-1-yl)-[1,1′:3′,1″-terphenyl]-4-yl)-3-methyl-1H-imidazol-2(3H)-one]: 30 to 300 nM and 1 to 10 nM.
The like results for `Cc1ccc(-c2cc(F)cc(-c3ccc(-n4ccn(C)c4=O)c(Cl)c3)c2O)cc1N1CC[C@@](C)(O)C1` [Example 808, (R)-1-(3-chloro-5′-fluoro-2′-hydroxy-3″-(3-hydroxy-3-methylpyrrolidin-1-yl)-4″-methyl-[1,1′:3′,1″-terphenyl]-4-yl)-3-methyl-1H-imidazol-2(3H)-one] were, in that order, 30 to 300 nM and 1 to 10 nM.
The matching figures for `Cn1ccn(-c2ccc(-c3cc(F)cc(-c4ccc(Cl)c(N5CCN(C(C)(C)C)CC5)c4)c3O)cc2Cl)c1=O` [Example 809, 1-(3″-(4-(tert-butyl)piperazin-1-yl)-3,4″-dichloro-5′-fluoro-2′-hydroxy-[1,1′:3′,1″-terphenyl]-4-yl)-3-methyl-1H-imidazol-2(3H)-one]: 0.3 to 30 nM and 1 to 10 nM.

As usually defined, the GI50 is the concentration at which growth is held to half of that of the control. High values mean lower sensitivity of the cells, low ones greater sensitivity of the cells. A word on the IC50: it is the midpoint of a concentration-inhibition curve.
